Experimental data reported in article PMC7176092, “Development of the first in vivo GPR17 ligand through an iterative drug discovery pipeline: A novel disease-modifying strategy for multiple sclerosis” (PLoS ONE, 2020).
Where two headings read alike, the source gives them in different places.

Tests used:
[1] = biological target: T1, CysLT2 (Homo sapiens, UniProt Q9NS75); assay: Binding assay CysLT2; details: 100 nM
T1 construct: Eurofins Cerep (external service)
T1 sequence (Q9NS75 1-346): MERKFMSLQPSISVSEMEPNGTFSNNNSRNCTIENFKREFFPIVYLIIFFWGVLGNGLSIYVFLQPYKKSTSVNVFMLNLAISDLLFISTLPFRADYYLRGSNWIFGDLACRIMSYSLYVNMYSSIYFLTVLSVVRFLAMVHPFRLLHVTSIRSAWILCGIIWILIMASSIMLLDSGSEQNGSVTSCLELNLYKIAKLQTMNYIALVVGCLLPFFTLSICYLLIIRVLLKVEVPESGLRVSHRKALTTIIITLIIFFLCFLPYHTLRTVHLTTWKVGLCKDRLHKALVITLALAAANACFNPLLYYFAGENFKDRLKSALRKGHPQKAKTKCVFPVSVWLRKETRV

[2] = biological target: T2, CXCR1 (Homo sapiens, UniProt P25024); assay: Cellular functional assay CXCR1
T2 sequence (P25024 1-350): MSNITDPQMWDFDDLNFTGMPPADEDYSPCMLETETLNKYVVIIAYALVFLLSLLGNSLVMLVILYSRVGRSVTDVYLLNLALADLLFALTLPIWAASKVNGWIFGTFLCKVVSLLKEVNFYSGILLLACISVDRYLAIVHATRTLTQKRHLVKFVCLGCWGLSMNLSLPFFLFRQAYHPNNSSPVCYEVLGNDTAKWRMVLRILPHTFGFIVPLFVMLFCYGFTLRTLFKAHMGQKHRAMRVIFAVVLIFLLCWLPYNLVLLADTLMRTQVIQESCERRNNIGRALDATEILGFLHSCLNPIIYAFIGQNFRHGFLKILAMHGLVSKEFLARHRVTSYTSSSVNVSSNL

[3] = biological target: T3, M2 (Homo sapiens, UniProt P08172); assay: Binding assay M2; details: 100 nM
T3 construct: Eurofins Cerep (external service)
T3 sequence (P08172 1-466): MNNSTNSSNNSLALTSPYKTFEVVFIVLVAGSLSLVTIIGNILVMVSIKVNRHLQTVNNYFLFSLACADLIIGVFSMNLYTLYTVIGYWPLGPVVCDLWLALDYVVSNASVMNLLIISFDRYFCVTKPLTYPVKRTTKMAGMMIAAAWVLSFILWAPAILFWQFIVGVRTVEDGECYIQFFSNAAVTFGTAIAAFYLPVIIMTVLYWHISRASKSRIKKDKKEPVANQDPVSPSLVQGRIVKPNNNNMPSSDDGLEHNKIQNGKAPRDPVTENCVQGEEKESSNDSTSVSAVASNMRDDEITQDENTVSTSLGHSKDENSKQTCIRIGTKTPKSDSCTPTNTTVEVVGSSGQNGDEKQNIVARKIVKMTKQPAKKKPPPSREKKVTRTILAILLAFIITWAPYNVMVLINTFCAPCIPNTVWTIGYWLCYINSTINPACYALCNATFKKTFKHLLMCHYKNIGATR

[4] = biological target: T4, mGluR5 (Homo sapiens, UniProt P41594); assay: Binding assay mGluR5; details: 100 nM
T4 construct: Eurofins Cerep (external service)

[5] = biological target: T5, CCR7 (Homo sapiens, UniProt P32248); assay: Cellular functional assay CCR7
T5 sequence (P32248 25-378): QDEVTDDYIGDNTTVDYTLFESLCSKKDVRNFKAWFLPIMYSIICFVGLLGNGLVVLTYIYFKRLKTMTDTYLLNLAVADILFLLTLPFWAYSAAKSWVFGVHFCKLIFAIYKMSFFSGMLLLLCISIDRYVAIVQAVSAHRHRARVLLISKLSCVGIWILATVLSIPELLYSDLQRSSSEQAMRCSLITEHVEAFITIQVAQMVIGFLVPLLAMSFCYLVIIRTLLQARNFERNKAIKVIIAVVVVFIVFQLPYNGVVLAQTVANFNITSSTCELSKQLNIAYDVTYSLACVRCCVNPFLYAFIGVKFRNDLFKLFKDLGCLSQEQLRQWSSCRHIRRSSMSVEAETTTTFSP

[6] = biological target: T6, ADR2A (Homo sapiens, UniProt P08913); assay: Binding assay ADR2A; details: 100 nM
T6 construct: Eurofins Cerep (external service)
T6 sequence (P08913 1-465): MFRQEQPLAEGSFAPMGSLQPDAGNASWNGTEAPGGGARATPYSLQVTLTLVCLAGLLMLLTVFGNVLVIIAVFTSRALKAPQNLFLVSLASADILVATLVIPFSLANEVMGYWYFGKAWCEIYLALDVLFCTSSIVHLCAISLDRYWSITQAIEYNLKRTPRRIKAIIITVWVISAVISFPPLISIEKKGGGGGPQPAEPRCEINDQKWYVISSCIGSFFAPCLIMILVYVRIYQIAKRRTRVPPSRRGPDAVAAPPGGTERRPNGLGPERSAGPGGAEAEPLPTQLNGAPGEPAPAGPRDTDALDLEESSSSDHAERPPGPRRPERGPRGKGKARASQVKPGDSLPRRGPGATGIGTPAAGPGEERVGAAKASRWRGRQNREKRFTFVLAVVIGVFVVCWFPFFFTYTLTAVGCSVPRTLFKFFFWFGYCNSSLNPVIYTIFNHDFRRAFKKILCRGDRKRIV

[7] = biological target: CXCR6 (Homo sapiens, UniProt O00574); assay: Cellular functional assay CXCR6
[8] = mean of 2, read-out: % Of control specific binding, Mean
[9] = read-out: % Inhibition of control specific binding
[10] = single replicates 1 and 2, 0.1 µM
[11] = single replicates 1 and 2, read-out: % Of control specific binding
[12] = antagonist effect, 100 nM, single replicates 1st and 2nd, 0.1 µM
[13] = read-out: % Inhibition of control agonist response
[14] = read-out: Agonist Response (% of Control), Mean, antagonist effect, 100 nM, mean of 2
[15] = read-out: Agonist Response (% of Control), antagonist effect, 100 nM, single replicates 1st and 2nd

T4 sequence (P41594 21-1212): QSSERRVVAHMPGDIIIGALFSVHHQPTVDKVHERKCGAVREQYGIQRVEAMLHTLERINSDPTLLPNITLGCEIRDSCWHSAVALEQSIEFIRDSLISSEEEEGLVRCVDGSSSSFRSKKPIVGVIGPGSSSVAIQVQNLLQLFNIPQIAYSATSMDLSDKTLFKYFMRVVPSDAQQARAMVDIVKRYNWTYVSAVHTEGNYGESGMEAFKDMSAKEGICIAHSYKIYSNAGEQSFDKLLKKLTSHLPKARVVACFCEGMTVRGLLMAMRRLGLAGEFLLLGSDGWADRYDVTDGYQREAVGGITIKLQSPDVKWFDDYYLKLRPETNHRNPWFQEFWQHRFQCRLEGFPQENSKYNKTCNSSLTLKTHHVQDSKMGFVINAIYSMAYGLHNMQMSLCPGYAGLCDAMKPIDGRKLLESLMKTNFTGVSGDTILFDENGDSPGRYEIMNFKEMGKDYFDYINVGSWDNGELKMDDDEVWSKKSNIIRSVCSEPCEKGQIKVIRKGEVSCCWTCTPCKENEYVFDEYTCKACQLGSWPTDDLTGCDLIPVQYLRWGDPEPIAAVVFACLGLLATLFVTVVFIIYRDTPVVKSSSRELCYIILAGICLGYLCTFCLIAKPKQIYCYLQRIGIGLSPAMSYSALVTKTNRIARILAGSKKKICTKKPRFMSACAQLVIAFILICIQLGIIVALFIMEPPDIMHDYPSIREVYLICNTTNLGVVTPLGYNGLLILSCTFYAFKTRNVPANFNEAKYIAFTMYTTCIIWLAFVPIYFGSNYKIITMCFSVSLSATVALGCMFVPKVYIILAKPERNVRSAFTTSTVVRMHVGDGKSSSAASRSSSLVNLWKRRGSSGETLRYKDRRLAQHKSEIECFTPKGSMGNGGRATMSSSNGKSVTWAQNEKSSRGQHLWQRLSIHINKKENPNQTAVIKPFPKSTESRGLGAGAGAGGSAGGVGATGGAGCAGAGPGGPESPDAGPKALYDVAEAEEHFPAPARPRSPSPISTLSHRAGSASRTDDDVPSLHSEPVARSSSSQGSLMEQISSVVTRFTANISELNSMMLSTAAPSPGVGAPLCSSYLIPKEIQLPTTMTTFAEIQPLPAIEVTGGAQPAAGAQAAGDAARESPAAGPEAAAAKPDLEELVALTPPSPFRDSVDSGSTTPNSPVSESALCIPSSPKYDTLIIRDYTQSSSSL
CXCR6, sequence (O00574 whole entry): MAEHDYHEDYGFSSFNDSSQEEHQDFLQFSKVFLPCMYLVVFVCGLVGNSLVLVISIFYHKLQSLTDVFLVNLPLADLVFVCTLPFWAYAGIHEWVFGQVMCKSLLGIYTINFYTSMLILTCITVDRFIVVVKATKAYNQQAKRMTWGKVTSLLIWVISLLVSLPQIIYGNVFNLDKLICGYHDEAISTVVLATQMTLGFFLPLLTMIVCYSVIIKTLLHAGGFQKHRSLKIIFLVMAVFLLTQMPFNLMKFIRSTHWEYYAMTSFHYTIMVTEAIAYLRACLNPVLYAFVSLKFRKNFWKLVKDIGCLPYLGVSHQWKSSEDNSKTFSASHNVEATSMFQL

Q: For `Cc1ccc(-c2nnc(SCC(=O)Nc3nccs3)[nH]2)cc1` [Compound 9], which remaining activity at 0.1 µM [1, 8] is on record?
A: Its remaining activity at 0.1 µM is 101%.

Q: What about the inhibition at 0.1 µM [1, 9] of the same compound?
A: The inhibition at 0.1 µM was -1%.

Q: And the “% Of control specific binding” value [1, 10]?
A: Its value is 103.4%.

Q: And the remaining activity at 0.1 µM [1, 11]?
A: Its remaining activity at 0.1 µM is 97.9%.

Q: What about the “Agonist Response (% of Control)” value [2, 12] of the same compound?
A: Its value is 105.5%.

Q: What about the inhibition at 0.1 µM [2, 13] of the same compound?
A: Its inhibition at 0.1 µM is -0.8%.

Q: What about the activity at 0.1 µM [2, 14] of the same compound?
A: The activity at 0.1 µM was 96.3%.

Q: What about the activity at 0.1 µM [2, 15] of the same compound?
A: Its activity at 0.1 µM is 87.1%.

Q: And the remaining activity at 0.1 µM [3, 8]?
A: Its remaining activity at 0.1 µM is 108%.

Q: And the inhibition at 0.1 µM [3, 9]?
A: The inhibition at 0.1 µM was -8%.

Q: What about the “% Of control specific binding” value [3, 10] of the same compound?
A: Its value is 111.1%.

Q: What about the remaining activity at 0.1 µM [3, 11] of the same compound?
A: Its remaining activity at 0.1 µM is 104%.

Q: And the remaining activity at 0.1 µM [4, 8]?
A: Its remaining activity at 0.1 µM is 104%.

Q: What about the inhibition at 0.1 µM [4, 9] of the same compound?
A: The inhibition at 0.1 µM was -4%.

Q: And the “% Of control specific binding” value [4, 10]?
A: The value was 106.8%.

Q: What about the remaining activity at 0.1 µM [4, 11] of the same compound?
A: The remaining activity at 0.1 µM was 102%.

Q: What about the “Agonist Response (% of Control)” value [5, 12] of the same compound?
A: Its value is 122.8%.

Q: And the inhibition at 0.1 µM [5, 13]?
A: Its inhibition at 0.1 µM is -1.8%.

Q: And the activity at 0.1 µM [5, 14]?
A: The activity at 0.1 µM was 127%.

Q: What about the activity at 0.1 µM [5, 15] of the same compound?
A: The activity at 0.1 µM was 131%.

Q: What about the remaining activity at 0.1 µM [6, 8] of the same compound?
A: Its remaining activity at 0.1 µM is 99.9%.

Q: And the inhibition at 0.1 µM [6, 9]?
A: Its inhibition at 0.1 µM is 0%.

Q: And the “% Of control specific binding” value [6, 10]?
A: Its value is 99.5%.

Q: And the remaining activity at 0.1 µM [6, 11]?
A: The remaining activity at 0.1 µM was 100%.

Q: And the “Agonist Response (% of Control)” value [7, 12]?
A: Its value is 103.1%.

Q: What about the inhibition at 0.1 µM [7, 13] of the same compound?
A: The inhibition at 0.1 µM was -0.7%.

Q: What about the activity at 0.1 µM [7, 14] of the same compound?
A: The activity at 0.1 µM was 104%.

Q: And the activity at 0.1 µM [7, 15]?
A: The activity at 0.1 µM was 105%.
